# Entries after “also recorded” stand apart in the source; their conditions may differ. Where two headings read alike, the source gives them in different places.
# Columns and labels:
# [1] = Plasma pharmacokinetics of AVR-48 after iv dosing in preterm lambs; type: in vivo, lamb
# Method: Formulation and dosing of AVR-48. AVR-48 (3 mg/mL) was formulated in 0.9% sterile saline and filtered through a 0.2-micron syringe filter into 10 mL serum vials ready for dosing. The efficacy dose was determined in a pilot study by stepwise escalating the AVR-48 dose concentrations. […] The vehicle control groups received 0.9% sterile saline every 12 hours (h).
# Pharmacokinetic study. The pharmacokinetics (PK) of AVR-48 were determined using plasma from the PT lambs following twice daily IV infusion (10 min) of AVR-48 every 12 h for 7 days. Tested doses were 0 (n=2), 0.1 (n=1), 0.3 (n=1), 1.0 (n=2), 3.0 (n=3), and 9 (n=1) mg/kg. PK evaluation for AVR-48 was only performed for DOL1 (12 time points between 0 and 12 h after the initial dose; volume of plasma samples through DOL2-7 was inadequate for PK evaluation). Quality-controlled plasma bioanalytical data were transferred from the Bioanalytical group to the PK Scientist of the Biopharmaceutics Department of Pharmascience Inc. Samples were analyzed, using Phoenix WinNonlin software, version 8.1 (Certara, USA), using a previously standardized HPLC/LC/MS method.
# [2] = tested on: preterm lamb model of BPD; experiment: Survival and growth in mechanically ventilated preterm lamb BPD model; type: in vivo
# Text: Study timeline. FIGS. 1A and 1B show the timeline for the two-endpoint study using two groups of PT lambs. The first endpoint used PT lambs managed by IMV for 7d, followed by extubation to noninvasive respiratory support (NRS) for up to 3d of life (DOL7-10). At that time, terminal tissues were collected. The second endpoint used the same management protocol, followed by weaning the lambs from respiratory support and having them live in the lamb intensive care unit as former PT (FPT) lambs for 2 months corrected postnatal age (3 months chronological age, DOL 90). The rationale for the 2-month corrected postnatal age for FPT lambs is when sheep are weaned from milk, equivalent to about 12-18 months for humans. Methods for the FPT lamb model have been reported.^14,17
# PT lamb model and methods for all outcome measures. Surgical preparation and management of lamb groups. Delivery and clinical management methods for PT lambs (6-8) and FPT lambs (3, 4). Briefly, time-pregnant ewes that had single or twin fetuses at ˜128d (˜85%) gestation (term ˜150d gestation) were used (main FIGS. 1A and 1B). The fetuses were exposed to antenatal steroids (dexamethasone) at ˜48 h and ˜24 h before Cesarean-section (exit-procedure) delivery. […]
# [3] = tested on: preterm lamb model of BPD; experiment: Respiratory gas exchange / oxygenation and ventilation indices in ventilated preterm lambs; type: in vivo
# Method: For dose-optimization, preterm (PT) lambs were delivered at ˜128d (d; saccular stage of lung development; ˜85% gestation) after maternal antenatal steroids exposure. […] After delivery and surfactant administration, PT lambs were maintained on invasive mechanical ventilation (IMV) for 7d followed by 3d noninvasive respiratory support. For the early-stage study, outcomes were determined for PT lambs over DOL1-10. For the late-stage study, outcomes were determined for former preterm (FPT) lambs (vehicle, AVR-48 treated) that were weaned from respiratory support after 10d and were maintained in the lamb intensive care unit for a further 80d. Outcomes included functional, structural, molecular, and neurobehavioral assessments. Term reference lambs that were never ventilated were used as developmental references for the FPT lambs.
# Arterial blood gases were obtained starting at 15 min of postnatal life and taken every 15 min for the first 90 min of postnatal life. FiO2 was decreased to attain a target oxygenation of O2 saturation 88-94% by pulse oximetry (Model SurgiVet V9200IBP/Temp, Smith Medical ASD, Inc., St. Paul, MN). PIP was adjusted to attain a target PaCO2 between 45 and 60 mmHg. The resultant pH range was between 7.25-7.35.
# Study design. A randomized, blinded, placebo-controlled study design was used for both endpoints. For each endpoint study, one group of PT lambs was treated with vehicle (saline, intravenously, iv, over about 10 min) for 7d and thus served as control. Another group of PT lambs was treated iv with AVR-48 for 7d. Either treatment was started at 6 h of postnatal life to allow the PT lambs to stabilize after Cesarean-section delivery and resuscitation physiologically and to permit initiation of ventilator-induced lung injury. The inventors relied on visual identification of biological sex at the time of delivery in the absence of an ultrasound unit in the lamb intensive care unit. The inventors tracked sex as a biological variable, but the study could not assess differences in outcomes based on sex because of small sample sizes.
# [4] = tested on: preterm lamb model of BPD; experiment: Lung histopathology and quantitative histology of lamb lungs; type: in vivo; conditions: for radial alveolar count (RAC) / distal airspace wall thickness / secondary septal volume density: vs vehicle
# Method: Terminal tissue collection. The inventors followed the methods the developed for terminal tissue collection.^14,17,26-28 Briefly, at the end of the early-stage study (DOL10) or late-stage study (DOL90 for FPT lambs; DOL60 for term reference lambs), the lambs were given ketamine (10-20 mg/Kg, intramuscularly) followed by face mask inhalation anesthesia with 1.0-2.5% isoflurane with O2. Lambs were intubated and ventilated with a tidal volume of 5-7 mL/kg, and given heparin (1000 U, iv). The lambs were given Beuthanasia solution (0.25 mL/Kg, iv; Intervet Inc., Madison, NJ) followed by potassium chloride (10 mEq, iv; Hospira, Lake Forest, IL).
# For morphological analyses, the entire left lung was insufflated with formalin and sampled by systematic, uniform, random methods for quantitative histology.^29 Morphometric and stereologic methods quantified radial alveolar count, secondary septal volume density, and thickness of distal airspace walls.^27 Alveolar capillary growth was quantified by a combination of immunohistochemistry to identify endothelial cells in lung tissue sections and quantitative histology.^27 For capillary surface density measurement, a recombinant anti-CD-34 antibody was used (ab81289, Abcam; Waltham, MA) for the capillary endothelial cell marker. Negative immunostain controls were omission of the primary antibody, omission of the secondary antibody, and substitution of the primary antibody with a species-matched, irrelevant antibody. Epithelium lining the air spaces was counterstained blue. The inventors used a computer-assisted true-color imaging system (Bioquant Life Science, Nashville, TN) to quantify the surface density of alveolar capillaries and the overlying epithelium.
# [5] = tested on: IL-1β, IL-6, IL-10 and soluble CD163 in lamb plasma; experiment: Plasma cytokine and soluble CD163 ELISA in lambs; type: in vivo; conditions: early-stage study, PT lambs vs vehicle
# Text: ELISA: The serum and bronchoalveolar lavage (BAL) fluid samples were used to quantify cytokine and soluble CD163 (sCD163) concentrations. The ELISA experiment analysis used commercially available ELISA kits, which were quantified using a plate reader. The inventors used GraphPad Prism V. 10.4. All sheep (ovine) ELISA kits were used within the expiry dates. Ovine IL-1β(Cat #ELO-IL1β), and ovine IL-6 (Cat #ELO-IL6) ELISA kits were purchased from RayBiotech, Peachtree Corners, GA, USA, sheep IL-10 (Cat #E12817Sh-96) was purchased from Lifeome Biolabs, Oceanside, CA, sheep CD163 (cat #MBS9364870) was purchased from MyBioSource, Inc. San Diego, CA, and Pierce™ BCA Protein Assay Kit (Cat #23227) from Thermo Fischer Scientific, Rockford, IL.
# [6] = 3.00 mg/kg bid iv, Day 1, 0 to 12 hr post dose, lamb plasma
# [7] = 3.00 mg/kg bid iv, Day 1, lamb plasma
# [8] = early-stage study DOL 1-7, vs vehicle
# [9] = early-stage study, PT lambs, 3.0 mg/kg, vs vehicle
structure (smiles),measurement,setting,value
CC(=O)NC1C(Oc2ccc([N+](=O)[O-])cc2)OC(CO)C(O)C1O (stereo not drawn) [AVR-48],AUC(0-t),[1]; [6],4222.9 ± 1835.9 ng·h/mL
same,Cmax,[1]; [6],3885.7 ± 1458.7 ng/mL
same,Tmax,"[1]; 3.00 mg/kg bid iv, Day 1, 0 to 12 hr post dose, male and female lamb plasma",15 min
same,"C0 (theoretical Cmax, concentration extrapolated to 0 hr)",[1]; [7],5138.8 ng/mL
same,CL,[1]; [7],13.19 mL/min/kg
same,T1/2,[1]; [7],38.4 ± 14.4 min
same,Tlast,[1]; [7],4.75 h
same,Vd,[1]; [7],0.6684 ± 0.129 L/kg
same,plasma concentration 15 minutes after each repeat dosing,"[1]; 3.0 mg/kg iv every 12 h for 7 d, lamb plasma",3886.6 ± 619.7 ng/mL
same,Cmax,"[1]; 3.0 mg/kg/dose iv, lamb plasma, read-out: Cmax",10.7 µM
same,Exposure (AUC(0-t)) over the dose range tested,[1]; 0.1-9 mg/kg/dose iv,increased dose-relatedly; also recorded: increased in a dose-related manner
same,repeat dose Cmax,"[1]; iv every 12 h for 7 d, 0.1-9 mg/kg/dose",consistent and dose-dependent
same,survival,"[2]; early-stage study, PT lambs",~100%
same,survival,"[2]; late-stage study d10-d90, FPT lambs, 3.0 mg/kg iv every 12 h DOL1-7",80%
same,body weight,"[2]; late-stage study, FPT AVR-48 lambs vs FPT vehicle lambs",significantly increased
same,BPD-like symptoms,"[3]; 10d period, dose escalation 0.1-9.0 mg/kg/dose",diminished in a dose-related manner
same,respiratory severity score (RSS),"[3]; early-stage pilot, PT lambs, 1.0 mg/kg iv every 12 h",improved moderately
same,FiO2 and PaO2,[3]; [8],No statistical difference
same,PIP and PaCO2,[3]; [8],No statistical difference
same,respiratory severity score (RSS),"[3]; early-stage study, PT lambs, 3.0 mg/kg iv every 12 h, vs vehicle, 3 mg/kg",Significant improvements; also recorded: significantly improved
same,Alveolar-arterial (A-a) gradient,[3]; [9],significantly improved
same,SpO2/FiO2 (SF) ratio,[3]; [9],significantly improved
same,oxygenation index,[3]; [9],significantly improved
same,radial alveolar count (RAC),"[4]; 10d, PT lambs, 3.0 mg/kg",significant increase
same,distal airspace wall thickness,"[4]; 10d, PT lambs",significantly thinner
same,secondary septal volume density,"[4]; 10d, PT lambs",significantly higher
same,radial alveolar count (RAC),"[4]; 90d, FPT lambs, 3.0 mg/kg",significant increase
same,distal airspace wall thickness,"[4]; 90d, FPT lambs",thinner (but not statistically different)
same,secondary septal volume density,"[4]; 90d, FPT lambs",higher in the AVR-48 lambs (but not statistically different)
same,development of terminal respiratory units (TRUs),"[4]; early-stage and late-stage studies, 3.0 mg/kg",significantly better development
same,plasma concentration of IL-1β,[5]; 6-10 h,significantly lower
same,plasma concentration of IL-6,[5]; 72-75 h,significantly lower
same,plasma concentration of IL-10,[5]; 138-150 h,significantly higher

# Reference: patent publication US20250332183A1, “COMPOSITIONS AND METHODS FOR THE STIMULATION OF INTERMEDIATE MACROPHAGES AND TREATMENTS THEREWITH” (priority 2024, published 2025)
